Data on 23 molecules can be found in patent US9062046B2, “Substituted imidazoquinoline derivatives as kinase inhibitors” (Piramal Enterprises Limited, priority 2011, dated 2015).

Assay [1] concerns A2780 (ovarian cell line). In words: Cytotoxicity assay (propidium iodide assay), A2780. Format: cell-based. Conditions: A2780 cells, 48 h treatment; for inhibition at 1 µM / IC50: Homo sapiens. The protocol:
(§1) The assay was designed as in the reference, Anticancer Drugs, 2002, 13, 1-8, the disclosure of which is incorporated by reference for the teaching of the assay.
(§2) Cells from cell lines A2780 (ovarian cell line) and PC3 (prostate cell line) (both from ATCC) were seeded at a density of 3000 cells/well in a white opaque 96-well plate. Following incubation at 37° C./5% CO2 for a period of 18-24 h, the cells were treated with various concentrations (stock solution was prepared in DMSO and subsequent dilutions were made in media as per ATCC guidelines) of the test compounds for a period of 48 h. At the end of treatment, the culture medium was discarded, the cells were washed with 1×PBS and 200 μl of 7 μg/ml propidium iodide was added to each well. The plates were frozen at −70° C. overnight. For analysis, the plates were warmed to RT, allowed to thaw and were read in PoleStar fluorimeter with the fluorescence setting. The percentage of viable cells in the non-treated set of wells was considered to be 100 and the percentage viability following treatment was calculated accordingly. IC50 values were calculated from graphs plotted using these percentages.

The next assay has as its system PC3 (prostate cell line). As to the kind of experiment: Cytotoxicity assay (propidium iodide assay), PC3. Conditions: PC3 cells, 48 h treatment; for inhibition at 1 µM / IC50: Homo sapiens, PC-3. The format is cell-based. As for the experimental part:
as §1, §2

As to `COc1ccc(-n2c(=NC#N)n(C)c3cnc4ccc(-c5cnc(OC)c(N)c5)cc4c32)c(OC)c1` [Example 13, N-(8-(5-amino-6-methoxypyridin-3-yl)-1-(2,4-dimethoxyphenyl)-3-methyl-1H-imidazo[4,5-c]quinolin-2(3H)-ylidene)cyanamide], the inhibition at 1 µM (in assay [1] (1 μM); with PC3 (prostate cell line) (1 μM)) was no less than 70% in each case.
Turning to `COc1cc(OC)cc(-n2c(=NC#N)n(C)c3cnc4ccc(-c5cnc(OC)c(N)c5)cc4c32)c1` [Example 99, N-(8-(5-amino-6-methoxypyridin-3-yl)-1-(3,5-dimethoxyphenyl)-3-methyl-1H-imidazo[4,5-c]quinolin-2(3H)-ylidene)cyanamide], the values for the IC50 (in assay [1]; in the assay with PC3 (prostate cell line)) were no more than 0.5 µM and 0.5 to 2 µM, respectively.
For the molecule `COc1ccc(-n2c(=NC#N)n(C)c3cnc4ccc(-c5ccc6ncccc6c5)cc4c32)c(OC)c1` [Example 103, N-(1-(2,4-dimethoxyphenyl)-3-methyl-8-(quinolin-6-yl)-1H-imidazo[4,5-c]quinolin-2(3H)-ylidene)cyanamide], the IC50 (in assay [1]; with PC3 (prostate cell line)) was no more than 0.5 µM each time.
Regarding `CCn1c(=NC#N)n(-c2ccc(C(C)(C)C#N)cc2)c2c3cc(-c4cccnc4)ccc3ncc21` [Example 86, N-(1-(4-(2-cyanopropan-2-yl)phenyl)-3-ethyl-8-(pyridin-3-yl)-1H-imidazo[4,5-c]quinolin-2(3H)-ylidene)cyanamide], the figures for the inhibition at 1 µM (in assay [1] (1 μM); with PC3 (prostate cell line) (1 μM)) were no less than 70% and 30 to 70%, respectively.
The corresponding values for `CC(C)(C#N)c1ccc(-n2c(=NC#N)[nH]c3cnc4ccc(-c5cnc(N)c(C(F)(F)F)c5)cc4c32)cc1` [Example 83, N-(8-(6-amino-5-(trifluoromethyl)pyridin-3-yl)-1-(4-(2-cyanopropan-2-yl)phenyl)-1H-imidazo[4,5-c]quinolin-2(3H)-ylidene)cyanamide] are no less than 70% and 30 to 70%.
`COc1ccc(-n2c(=NC#N)n(C)c3cnc4ccc(-c5cncc(C(F)(F)F)c5)cc4c32)cn1` [Example 25, N-(1-(6-methoxypyridin-3-yl)-3-methyl-8-(5-(trifluoromethyl)pyridin-3-yl)-1H-imidazo[4,5-c]quinolin-2(3H)-ylidene)cyanamide]: the figures for the inhibition at 1 µM (in assay [1] (1 μM); in the assay with PC3 (prostate cell line) (1 μM)) were no less than 70% and 30 to 70%, respectively.
The corresponding values for `Cn1c(=NC#N)n(-c2ccc(C(C)(C)C#N)nc2)c2c3cc(-c4ccc(F)cc4)ccc3ncc21` [Example 80, N-(1-(6-(2-cyanopropan-2-yl)pyridin-3-yl)-8-(4-fluorophenyl)-3-methyl-1H-imidazo[4,5-c]quinolin-2(3H)-ylidene)cyanamide] are no less than 70% and 30 to 70%.
Consider `COc1ccc(-n2c(=NC#N)n(C)c3cnc4ccc(-c5cccc(F)c5)cc4c32)cn1` [Example 40, N-(8-(3-fluorophenyl)-1-(6-methoxypyridin-3-yl)-3-methyl-1H-imidazo[4,5-c]quinolin-2(3H)-ylidene)cyanamide], for which the figures for the inhibition at 1 µM (in assay [1] (1 μM); in the assay on PC3 (prostate cell line) (1 μM)) were 30 to 70% and less than 30%, respectively.
As to `Cn1c(=NC#N)n(-c2ccc(C(C)(C)C#N)nc2)c2c3cc(-c4cnc(NCc5ccccc5)c(C(F)(F)F)c4)ccc3ncc21` [Example 138, N-(8-(6-(benzylamino)-5-(trifluoromethyl)pyridin-3-yl)-1-(6-(2-cyanopropan-2-yl)pyridin-3-yl)-3-methyl-1H-imidazo[4,5-c]quinolin-2(3H)-ylidene)cyanamide], the 50% inhibitory concentration (IC50) (in assay [1]; with PC3 (prostate cell line)) was no more than 0.5 µM throughout.
As for `CNc1ncc(-c2ccc3ncc4c(c3c2)n(-c2ccc(C(C)(C)C#N)cc2)c(=NC#N)n4C)cc1C(F)(F)F` [Example 12, N-(1-(4-(2-cyanopropan-2-yl)phenyl)-3-methyl-8-(6-(methylamino)-5-(trifluoromethyl)pyridin-3-yl)-1H-imidazo[4,5-c]quinolin-2(3H)-ylidene)cyanamide], the concentration for half-maximal inhibition (IC50) (in assay [1]; in the assay with PC3 (prostate cell line)) was no more than 0.5 µM each time.
On to `COc1ccc(-c2ccc3ncc4c(c3c2)n(-c2ccc(C(C)(C)C#N)nc2)c(=NC#N)n4C)cn1` [Example 51, N-(1-(6-(2-cyanopropan-2-yl)pyridin-3-yl)-8-(6-methoxypyridin-3-yl)-3-methyl-1H-imidazo[4,5-c]quinolin-2(3H)-ylidene)cyanamide], for which the inhibition (commonly the percentage by which the read-out fell short of the control) at 1 µM was no less than 70% in assay [1] (1 μM) and 30 to 70% with PC3 (prostate cell line) (1 μM).
As for `Cn1c(=NC#N)n(-c2ccc(C(C)(C)C#N)nc2)c2c3cc(-c4ccc5c(c4)OCO5)ccc3ncc21` [Example 54, N-(8-(benzo[d][1,3]dioxol-5-yl)-1-(6-(2-cyanopropan-2-yl)pyridin-3-yl)-3-methyl-1H-imidazo[4,5-c]quinolin-2(3H)-ylidene)cyanamide], the inhibition at 1 µM was 30 to 70% in assay [1] (1 μM) and less than 30% in the assay on PC3 (prostate cell line) (1 μM).
Consider `Cn1c(=NC#N)n(-c2ccc3ncccc3c2)c2c3cc(-c4cnc(N)c(C(F)(F)F)c4)ccc3ncc21` [Example 11, N-(8-(6-amino-5-(trifluoromethyl)pyridin-3-yl)-3-methyl-1-(quinolin-6-yl)-1H-imidazo[4,5-c]quinolin-2(3H)-ylidene)cyanamide], for which the IC50 (in assay [1]; in the assay with PC3 (prostate cell line)) was no more than 0.5 µM in each case.
For `COc1ncc(-c2ccc3ncc4c(c3c2)n(-c2cncc(-c3ccccc3)c2)c(=NC#N)n4C)cc1N` [Example 93, N-(8-(5-amino-6-methoxypyridin-3-yl)-3-methyl-1-(5-phenylpyridin-3-yl)-1H-imidazo[4,5-c]quinolin-2(3H)-ylidene)cyanamide], the IC50 (in assay [1]; in the assay on PC3 (prostate cell line)) was 0.5 to 2 µM throughout.
Regarding `COc1ccc(F)cc1-c1ccc2ncc3c(c2c1)n(-c1ccc(C(C)(C)C#N)nc1)c(=NC#N)n3C` [Example 52, N-(1-(6-(2-cyanopropan-2-yl)pyridin-3-yl)-8-(5-fluoro-2-methoxyphenyl)-3-methyl-1H-imidazo[4,5-c]quinolin-2(3H)-ylidene)cyanamide], the inhibition at 1 µM (in assay [1] (1 μM); in the assay with PC3 (prostate cell line) (1 μM)) was less than 30% each time.
As to `CN(C)c1ncc(-c2ccc3ncc4c(c3c2)n(-c2ccc(C(C)(C)C#N)cc2)c(=NC#N)n4C)cc1C(F)(F)F` [Example 129, N-(1-(4-(2-cyanopropan-2-yl)phenyl)-8-(6-(dimethylamino)-5-(trifluoromethyl)pyridin-3-yl)-3-methyl-1H-imidazo[4,5-c]quinolin-2(3H)-ylidene) cyanamide], the “% Inhibition at 1 μM, A2780” value in assay [1] (1 μM) is “+++ (≧70%)”. The “% Inhibition at 1 μM, PC3” value in the assay with PC3 (prostate cell line) (1 μM) is listed as “++ (≧30% upto 70%)”.
As to `COc1ccc(-n2c(=NC#N)n(C)c3cnc4ccc(-c5ccccc5OC)cc4c32)cn1` [Example 49, N-(8-(2-methoxyphenyl)-1-(6-methoxypyridin-3-yl)-3-methyl-1H-imidazo[4,5-c]quinolin-2(3H)-ylidene)cyanamide], the inhibition at 1 µM is 30 to 70% in assay [1] (1 μM) and less than 30% with PC3 (prostate cell line) (1 μM).
Consider `Cn1c(=NC#N)n(-c2ccc(C(C)(C)C#N)nc2)c2c3cc(-c4ccc5ncccc5c4)ccc3ncc21` [Example 56, N-(1-(6-(2-cyanopropan-2-yl)pyridin-3-yl)-3-methyl-8-(quinolin-6-yl)-1H-imidazo[4,5-c]quinolin-2(3H)-ylidene)cyanamide], for which the inhibition at 1 µM is no less than 70% in assay [1] (1 μM) and 30 to 70% in the assay with PC3 (prostate cell line) (1 μM).
Regarding `Cn1c(=NC#N)n(-c2ccc(C(C)(C)C#N)nc2)c2c3cc(-c4ccc(N5CCN(C(=O)OC(C)(C)C)CC5)nc4)ccc3ncc21` [Example 72, tert-butyl 4-(5-(2-(cyanoimino)-1-(6-(2-cyanopropan-2-yl)pyridin-3-yl)-3-methyl-2,3-dihydro-1H-imidazo[4,5-c]quinolin-8-yl)pyridin-2-yl)piperazine-1-carboxylate], the inhibition at 1 µM (in assay [1] (1 μM); with PC3 (prostate cell line) (1 μM)) was less than 30% each time.
Consider `Cn1c(=NC#N)n(-c2ccc(C(C)(C)C#N)nc2)c2c3cc(-c4ccc5ccccc5c4)ccc3ncc21` [Example 62, N-(1-(6-(2-cyanopropan-2-yl)pyridin-3-yl)-3-methyl-8-(naphthalen-2-yl)-1H-imidazo[4,5-c]quinolin-2(3H)-ylidene)cyanamide], for which the inhibition at 1 µM (in assay [1] (1 μM); in the assay with PC3 (prostate cell line) (1 μM)) was 30 to 70% each time.
In the case of `Cn1c(=NC#N)n(-c2ccc(C(C)(C)C#N)nc2)c2c3cc(-c4cnc(NC(=O)OC(C)(C)C)c(C(F)(F)F)c4)ccc3ncc21` [Example 122, tert-butyl 5-(2-(cyanoimino)-1-(6-(2-cyanopropan-2-yl)pyridin-3-yl)-3-methyl-2,3-dihydro-1H-imidazo[4,5-c]quinolin-8-yl)-3-(trifluoromethyl)pyridin-2-ylcarbamate], the inhibition at 1 µM in assay [1] (1 μM) was no less than 70%; with PC3 (prostate cell line) (1 μM), 30 to 70%.
`COc1cc(OC)cc(-n2c(=NC#N)n(C)c3cnc4ccc(-c5cnc(N)c(C(F)(F)F)c5)cc4c32)c1` [Example 97, N-(8-(6-amino-5-(trifluoromethyl)pyridin-3-yl)-1-(3,5-dimethoxyphenyl)-3-methyl-1H-imidazo[4,5-c]quinolin-2(3H)-ylidene)cyanamide]: the inhibition at 1 µM (in assay [1] (1 μM); in the assay with PC3 (prostate cell line) (1 μM)) was no less than 70% throughout.
On to `Cn1c(=NC#N)n(-c2ccc(C(C)(C)C#N)cc2)c2c3cc(-c4cnc5ccccc5c4)ccc3ncc21` [Example 7, N-(1-(4-(2-cyanopropan-2-yl)phenyl)-3-methyl-8-(quinolin-3-yl)-1H-imidazo[4,5-c]quinolin-2(3H)-ylidene)cyanamide], for which the IC50 (in assay [1]; with PC3 (prostate cell line)) was no more than 0.5 µM throughout.
